The values that follow come from patent US9834571B2, “Compounds for inhibiting cell proliferation in EGFR-driven cancers” (ARIAD Pharmaceuticals, Inc., priority 2012, dated 2017).

Structures are written as SMILES. Read-outs that look alike come from different tables or passages of the source.

The target of assay [1] is human EGFR (native sequence) (Homo sapiens, UniProt P00533). In words: Kinase inhibitory activity against human EGFR (native sequence). The format is biochemical. Particulars: 10 μM ATP, read-out: IC50 for kinase inhibition, EGFR. The essentials:
(§1)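 Testing covers a ten-concentration range beginning at 3 μM, performed once per concentration at an ATP level of 10 μM.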

Another assay concerns the target EGFR L858R (Homo sapiens, UniProt P00533, L858R). In words: Kinase inhibitory activity against EGFR bearing the L858R mutation. The format is biochemical. Particulars: 10 μM ATP, read-out: IC50 for kinase inhibition, EGFR L858R. Put shortly:
as §1

In another assay the target is EGFR L858R/T790M (Homo sapiens, UniProt P00533, L858R/T790M). Briefly: Kinase inhibitory activity against EGFR bearing the L858R/T790M double mutation. The format is biochemical. Particulars: 10 μM ATP, read-out: IC50 for kinase inhibition, EGFR L858R T790M. Put shortly: as §1
Assay [2] deals with T1, BaF3 cells expressing the target EGFR mutations (Homo sapiens, UniProt P00533, T790M, cells depend on it, form not given).
T1 construct: IC50, BAF3 EGFR DEL T790M PURO POOL; other: BAF3 EGFR DEL T790M PURO POOL cells, MTT; other: BAF3 EGFR DEL T790M PURO POOL cells; MTT
In words: Antiproliferative activity (MTT) against BaF3 cells expressing the target EGFR mutations. In kind it is cell-based. The following applies: BAF3 EGFR DEL T790M PURO POOL cells, read-out: IC50, BAF3 EGFR DEL T790M PURO POOL. The essentials: (§2)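 In this screen, MTT reduction reported on proliferation of BaF3 cells dependent on mutated EGFR and of matched BaF3 cells expressing wildtype receptor.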

In assay [3] the target is T2, BaF3 cells expressing the target EGFR mutations (Homo sapiens, UniProt P00533, T790M/L858R, cells depend on it).
T2 construct: IC50, BAF3 EGFR L858R-T790M PURO POOL; other: BAF3 EGFR L858R-T790M PURO POOL cells, MTT; IC50, BAF3 EGFR L858R-T790M PURO POOL; other: BAF3 EGFR L858R-T790M PURO POOL cells; MTT
Described as above. The format is cell-based. The following applies: BAF3 EGFR L858R-T790M PURO POOL cells, read-out: IC50, BAF3 EGFR L858R-T790M PURO POOL. Put shortly:
as §2

The subject of assay [4] is BaF3 cells expressing wildtype EGFR. In words: Antiproliferative activity (MTT) against control BaF3 cells expressing wildtype EGFR. Particulars: Mus musculus. In kind it is cell-based. Put shortly: as §2
[5] abbreviates: 10 pt curves, 3 μM top concentration.
Setting [6] is: EGFR L858R/T790M double mutation.

T1 sequence (P00533 with tags, fused parts or gaps DEL746-750/T790M, form open): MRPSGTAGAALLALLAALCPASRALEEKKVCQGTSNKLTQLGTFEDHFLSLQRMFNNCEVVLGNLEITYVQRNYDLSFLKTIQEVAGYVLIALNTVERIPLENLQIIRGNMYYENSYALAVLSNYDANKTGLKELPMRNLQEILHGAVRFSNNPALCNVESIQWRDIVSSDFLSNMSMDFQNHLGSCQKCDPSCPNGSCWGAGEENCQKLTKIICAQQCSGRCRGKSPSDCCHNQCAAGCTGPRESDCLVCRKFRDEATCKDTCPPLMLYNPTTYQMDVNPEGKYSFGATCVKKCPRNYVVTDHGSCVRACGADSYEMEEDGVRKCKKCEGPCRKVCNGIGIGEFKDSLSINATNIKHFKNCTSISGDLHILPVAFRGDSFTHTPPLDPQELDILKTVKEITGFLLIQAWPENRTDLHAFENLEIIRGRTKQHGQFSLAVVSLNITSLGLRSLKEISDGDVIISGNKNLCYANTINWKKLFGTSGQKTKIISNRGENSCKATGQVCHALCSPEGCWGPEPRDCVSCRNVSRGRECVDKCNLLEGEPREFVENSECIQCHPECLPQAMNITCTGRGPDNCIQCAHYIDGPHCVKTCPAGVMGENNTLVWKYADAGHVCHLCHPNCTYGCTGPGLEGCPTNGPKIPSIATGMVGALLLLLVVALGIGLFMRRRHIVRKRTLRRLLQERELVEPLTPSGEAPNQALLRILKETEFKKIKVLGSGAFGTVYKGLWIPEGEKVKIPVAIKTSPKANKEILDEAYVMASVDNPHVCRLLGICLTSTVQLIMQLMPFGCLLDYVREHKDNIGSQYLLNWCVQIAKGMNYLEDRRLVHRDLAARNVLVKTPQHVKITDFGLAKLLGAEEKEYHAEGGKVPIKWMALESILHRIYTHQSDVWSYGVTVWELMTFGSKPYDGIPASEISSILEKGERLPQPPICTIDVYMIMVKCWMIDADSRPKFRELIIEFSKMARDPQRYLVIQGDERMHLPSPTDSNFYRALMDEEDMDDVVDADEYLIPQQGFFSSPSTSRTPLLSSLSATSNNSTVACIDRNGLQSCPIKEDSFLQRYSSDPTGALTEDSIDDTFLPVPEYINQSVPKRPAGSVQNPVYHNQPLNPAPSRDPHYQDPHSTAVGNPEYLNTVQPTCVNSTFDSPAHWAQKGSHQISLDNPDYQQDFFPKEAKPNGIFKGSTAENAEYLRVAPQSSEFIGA
EGFR L858R/T790M, sequence (P00533 25-1210 T790M/L858R): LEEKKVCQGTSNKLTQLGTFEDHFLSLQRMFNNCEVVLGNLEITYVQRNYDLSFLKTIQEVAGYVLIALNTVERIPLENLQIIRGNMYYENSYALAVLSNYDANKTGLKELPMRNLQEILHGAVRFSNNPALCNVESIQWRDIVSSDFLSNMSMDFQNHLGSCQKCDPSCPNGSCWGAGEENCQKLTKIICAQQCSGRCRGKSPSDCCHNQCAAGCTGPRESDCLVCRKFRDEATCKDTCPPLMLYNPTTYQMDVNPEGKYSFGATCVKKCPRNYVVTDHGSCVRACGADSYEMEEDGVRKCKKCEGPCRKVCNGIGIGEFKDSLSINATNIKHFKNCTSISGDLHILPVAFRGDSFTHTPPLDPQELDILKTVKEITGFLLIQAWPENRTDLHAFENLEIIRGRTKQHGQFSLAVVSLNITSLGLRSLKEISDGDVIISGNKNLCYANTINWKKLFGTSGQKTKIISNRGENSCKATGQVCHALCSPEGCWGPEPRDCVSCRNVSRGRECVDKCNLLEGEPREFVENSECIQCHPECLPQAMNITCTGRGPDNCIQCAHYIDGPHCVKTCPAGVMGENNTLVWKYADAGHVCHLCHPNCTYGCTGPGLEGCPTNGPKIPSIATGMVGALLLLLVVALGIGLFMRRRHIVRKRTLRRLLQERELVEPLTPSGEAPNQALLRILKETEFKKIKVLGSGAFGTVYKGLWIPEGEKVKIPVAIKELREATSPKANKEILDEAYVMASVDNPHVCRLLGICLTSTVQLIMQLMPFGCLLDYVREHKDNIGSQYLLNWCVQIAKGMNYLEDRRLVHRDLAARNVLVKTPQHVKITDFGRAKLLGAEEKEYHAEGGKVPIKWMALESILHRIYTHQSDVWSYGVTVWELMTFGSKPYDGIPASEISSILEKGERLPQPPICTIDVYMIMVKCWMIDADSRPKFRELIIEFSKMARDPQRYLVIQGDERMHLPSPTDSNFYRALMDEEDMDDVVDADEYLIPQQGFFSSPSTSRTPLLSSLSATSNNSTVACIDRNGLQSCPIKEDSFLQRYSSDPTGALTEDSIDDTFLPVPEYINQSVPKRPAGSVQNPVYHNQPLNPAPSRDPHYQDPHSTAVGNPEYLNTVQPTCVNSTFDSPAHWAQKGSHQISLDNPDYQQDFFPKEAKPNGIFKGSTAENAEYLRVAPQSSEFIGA
T2 sequence (P00533 whole entry T790M/L858R): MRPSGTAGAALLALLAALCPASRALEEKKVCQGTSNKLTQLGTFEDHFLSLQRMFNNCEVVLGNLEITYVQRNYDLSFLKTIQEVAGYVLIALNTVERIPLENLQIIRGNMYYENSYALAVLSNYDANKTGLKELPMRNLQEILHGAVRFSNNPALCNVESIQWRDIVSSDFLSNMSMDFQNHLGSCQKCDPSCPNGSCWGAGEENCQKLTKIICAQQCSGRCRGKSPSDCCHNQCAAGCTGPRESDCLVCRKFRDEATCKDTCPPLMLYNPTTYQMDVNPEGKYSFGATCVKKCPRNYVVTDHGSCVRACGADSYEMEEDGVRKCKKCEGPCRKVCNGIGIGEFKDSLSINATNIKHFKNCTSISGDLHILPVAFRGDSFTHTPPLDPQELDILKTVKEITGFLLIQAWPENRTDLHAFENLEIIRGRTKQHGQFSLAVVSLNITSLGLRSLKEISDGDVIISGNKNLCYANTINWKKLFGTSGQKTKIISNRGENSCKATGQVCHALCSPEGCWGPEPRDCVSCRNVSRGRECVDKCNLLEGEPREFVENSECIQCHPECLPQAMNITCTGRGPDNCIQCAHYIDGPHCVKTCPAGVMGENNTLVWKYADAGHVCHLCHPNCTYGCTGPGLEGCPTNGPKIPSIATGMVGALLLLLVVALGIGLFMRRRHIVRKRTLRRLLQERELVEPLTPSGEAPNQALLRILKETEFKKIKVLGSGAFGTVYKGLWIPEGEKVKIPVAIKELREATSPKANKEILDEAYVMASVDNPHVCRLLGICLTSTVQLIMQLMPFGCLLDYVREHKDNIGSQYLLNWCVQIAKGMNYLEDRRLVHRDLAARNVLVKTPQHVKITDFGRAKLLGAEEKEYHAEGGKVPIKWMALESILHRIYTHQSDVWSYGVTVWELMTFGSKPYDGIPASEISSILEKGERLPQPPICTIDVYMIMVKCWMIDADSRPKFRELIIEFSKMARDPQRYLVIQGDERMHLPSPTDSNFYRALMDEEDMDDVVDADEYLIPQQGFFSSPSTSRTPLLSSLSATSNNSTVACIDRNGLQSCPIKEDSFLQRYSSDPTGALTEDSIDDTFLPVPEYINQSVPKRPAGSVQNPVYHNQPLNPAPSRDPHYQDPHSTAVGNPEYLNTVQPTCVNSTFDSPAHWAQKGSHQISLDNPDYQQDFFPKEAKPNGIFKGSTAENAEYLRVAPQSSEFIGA
EGFR L858R, sequence (P00533 25-1210 L858R): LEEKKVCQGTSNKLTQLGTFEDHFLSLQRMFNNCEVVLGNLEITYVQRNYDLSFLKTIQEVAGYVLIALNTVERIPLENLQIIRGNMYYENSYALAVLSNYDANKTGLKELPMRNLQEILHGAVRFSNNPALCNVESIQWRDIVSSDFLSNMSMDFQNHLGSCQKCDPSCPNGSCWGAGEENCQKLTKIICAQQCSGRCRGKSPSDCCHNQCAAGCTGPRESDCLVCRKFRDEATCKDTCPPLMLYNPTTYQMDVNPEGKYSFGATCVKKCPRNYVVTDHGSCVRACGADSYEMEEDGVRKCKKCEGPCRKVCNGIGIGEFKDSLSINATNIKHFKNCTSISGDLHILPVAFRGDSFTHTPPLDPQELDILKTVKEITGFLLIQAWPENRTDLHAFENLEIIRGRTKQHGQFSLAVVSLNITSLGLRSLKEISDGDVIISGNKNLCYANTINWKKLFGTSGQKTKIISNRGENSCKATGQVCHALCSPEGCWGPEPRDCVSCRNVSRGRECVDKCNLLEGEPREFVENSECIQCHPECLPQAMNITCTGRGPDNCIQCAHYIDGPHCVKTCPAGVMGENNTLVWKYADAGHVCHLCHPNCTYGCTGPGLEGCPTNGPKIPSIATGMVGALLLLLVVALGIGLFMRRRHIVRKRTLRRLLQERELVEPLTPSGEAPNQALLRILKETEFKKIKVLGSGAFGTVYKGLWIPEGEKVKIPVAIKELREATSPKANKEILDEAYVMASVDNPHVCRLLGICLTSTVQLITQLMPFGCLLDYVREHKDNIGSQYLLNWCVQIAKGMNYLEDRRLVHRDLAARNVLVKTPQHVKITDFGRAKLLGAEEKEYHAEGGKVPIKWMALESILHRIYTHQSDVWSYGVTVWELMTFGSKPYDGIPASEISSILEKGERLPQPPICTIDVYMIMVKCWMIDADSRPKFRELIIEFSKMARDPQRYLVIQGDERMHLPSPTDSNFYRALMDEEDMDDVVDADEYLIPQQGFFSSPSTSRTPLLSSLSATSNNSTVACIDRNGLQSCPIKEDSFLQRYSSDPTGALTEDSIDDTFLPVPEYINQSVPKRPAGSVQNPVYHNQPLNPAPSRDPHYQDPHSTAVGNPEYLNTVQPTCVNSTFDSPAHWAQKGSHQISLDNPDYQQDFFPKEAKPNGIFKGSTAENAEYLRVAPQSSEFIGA

As usually defined, the IC50 is the concentration that inhibits the measured activity by half. For `C=CC(=O)Nc1cc(Nc2ncc(Cl)c(Nc3ccccc3S(=O)(=O)C(C)C)n2)c(OC)cc1C#CCN(C)C` [Example 153, N-(5-((5-chloro-4-((2-(isopropylsulfonyl)phenyl)amino)pyrimidin-2-yl)amino)-2-(3-(dimethylamino)prop-1-yn-1-yl)-4-methoxyphenyl)acrylamide], the half-maximal inhibitory concentration (IC50) in assay [1] (setting [5]) is less than 50 nM; on EGFR L858R (setting [5]), less than 50 nM; at EGFR L858R/T790M (setting [5]) it was less than 50 nM; in assay [4] (BAF3 parental cells) it was not below 250 nM. Moreover, the GI50 in assay [2] and in assay [3] was less than 50 nM in each case.
On to `C=CC(=O)Nc1cc(Nc2ncc(Cl)c(Nc3ccccc3P(C)(C)=O)n2)c(OC)cc1N1CCC(N2CCC(O)CC2)C1` (stereo not drawn) [Example 39, N-(5-((5-chloro-4-((2-(dimethylphosphoryl)phenyl)amino)pyrimidin-2-yl)amino)-2-(3-(4-hydroxypiperidin-1-yl)pyrrolidin-1-yl)-4-methoxyphenyl)acrylamide], for which the half-maximal inhibitory concentration (IC50) in assay [1] (human EGFR native sequence) is less than 50 nM; at EGFR L858R (EGFR L858R) it was less than 50 nM; at EGFR L858R/T790M (setting [6]), less than 50 nM; in assay [4] (BAF3 PARENTAL cells (control)), not below 250 nM. Also, the GI50 in assay [2] was 101 to 250 nM; in assay [3], not below 250 nM.
In the case of `C=CC(=O)Nc1cc(Nc2ncc(Cl)c(Nc3ccccc3P(C)(C)=O)n2)c(OC)cc1N1CCC(N(C)CCOC)C1` (stereo not drawn) [Example 41, N-(5-((5-chloro-4-((2-(dimethylphosphoryl)phenyl)amino)pyrimidin-2-yl)amino)-4-methoxy-2-(3-((2-methoxyethyl)(methyl)amino)pyrrolidin-1-yl)phenyl)acrylamide], the half-inhibitory concentration (IC50) was less than 50 nM in assay [1] (human EGFR native sequence), less than 50 nM on EGFR L858R (EGFR L858R), less than 50 nM on EGFR L858R/T790M (setting [6]) and not below 250 nM in assay [4] (BAF3 PARENTAL cells (control)). Also, the GI50 in assay [2] and in assay [3] was less than 50 nM throughout.
As for `C=CC(=O)Nc1cc(Nc2ncc(Cl)c(Nc3ccccc3P(C)(C)=O)n2)c(OC)cc1N1CCC(N)C1` (stereo not drawn) [Example 57, N-(2-(3-aminopyrrolidin-1-yl)-5-((5-chloro-4-((2-(dimethylphosphoryl)phenyl)amino)pyrimidin-2-yl)amino)-4-methoxyphenyl)acrylamide], the IC50 in assay [1] (human EGFR native sequence) was less than 50 nM; at EGFR L858R (EGFR L858R), less than 50 nM; on EGFR L858R/T790M (setting [6]), less than 50 nM; in assay [4] (BAF3 PARENTAL cells (control)), not below 250 nM. Moreover, the GI50 in assay [2] and in assay [3] was not below 250 nM throughout.
In the case of `C=C(C)C(=O)Nc1cc(Nc2ncc(Cl)c(Nc3ccccc3P(C)(C)=O)n2)c(OC)cc1N1CC[C@@H](N(C)C)C1` (racemic) [Example 113, rac-(R)-N-(5-((5-chloro-4-((2-(dimethylphosphoryl)phenyl)amino)pyrimidin-2-yl)amino)-2-(3-(dimethylamino)pyrrolidin-1-yl)-4-methoxyphenyl)methacrylamide], the IC50 in assay [1] (setting [5]) was 101 to 250 nM; on EGFR L858R (setting [5]), less than 50 nM; at EGFR L858R/T790M (setting [5]), less than 50 nM; in assay [4] (BAF3 parental cells), not below 250 nM. Further, the GI50 in assay [2] and in assay [3] was less than 50 nM each time.
Regarding `C=CC(=O)Nc1cc(Nc2ncc(Cl)c(Nc3ccccc3P(C)(C)=O)n2)c(OC)cc1C#CCN1CCCCCC1` [Example 165, N-(2-(3-(azepan-1-yl)prop-1-yn-1-yl)-5-((5-chloro-4-((2-(dimethylphosphoryl)phenyl)amino)pyrimidin-2-yl)amino)-4-methoxyphenyl)acrylamide], the IC50 is less than 50 nM in assay [1] (setting [5]), less than 50 nM on EGFR L858R (setting [5]), less than 50 nM on EGFR L858R/T790M (setting [5]) and not below 250 nM in assay [4] (BAF3 parental cells). The GI50 in assay [2] and in assay [3] was less than 50 nM in each case.
As to `COc1ccc(NS(=O)(=O)CCl)cc1Nc1ncc(Cl)c(Nc2ccccc2P(C)(C)=O)n1` [Example 150, 1-chloro-N-(3-((5-chloro-4-((2-(dimethylphosphoryl)phenyl)amino)pyrimidin-2-yl)amino)-4-methoxyphenyl)methanesulfonamide], the IC50 (in assay [1] (setting [5]); at EGFR L858R (setting [5]); at EGFR L858R/T790M (setting [5]); in assay [4] (BAF3 parental cells)) was not below 250 nM each time. The GI50 in assay [2] and in assay [3] was not below 250 nM each time.
Turning to `C=CC(=O)Nc1cc(Nc2ncc(Cl)c(Nc3ccccc3P(C)(C)=O)n2)c(OC)cc1OC1CCN(C)C1` (stereo not drawn) [Example 13, N-(5-((5-chloro-4-((2-(dimethylphosphoryl)phenyl)amino)pyrimidin-2-yl)amino)-4-methoxy-2-((1-methylpyrrolidin-3-yl)oxy)phenyl)acrylamide], the IC50 is less than 50 nM in assay [1] (human EGFR native sequence), less than 50 nM on EGFR L858R (EGFR L858R), less than 50 nM on EGFR L858R/T790M (setting [6]) and not below 250 nM in assay [4] (BAF3 PARENTAL cells (control)). For the same compound, the GI50 in assay [2] and in assay [3] was less than 50 nM throughout.
In the case of `C=CC(=O)Nc1cc(Nc2ncc(Cl)c(Nc3ccccc3P(C)(C)=O)n2)c(OC)cc1OC(COC)CN(C)C` (stereo not drawn) [Example 130, N-(5-((5-chloro-4-((2-(dimethylphosphoryl)phenyl)amino)pyrimidin-2-yl)amino)-2-((1-(dimethylamino)-3-methoxypropan-2-yl)oxy)-4-methoxyphenyl)acrylamide], the concentration for half-maximal inhibition (IC50) in assay [1] (setting [5]) is less than 50 nM; on EGFR L858R (setting [5]), less than 50 nM; on EGFR L858R/T790M (setting [5]), less than 50 nM; in assay [4] (BAF3 parental cells) it was not below 250 nM. Besides, the GI50 in assay [2] and in assay [3] was less than 50 nM each time.
In the case of `C=CC(=O)Nc1cc(Nc2ncc(Cl)c(Nc3ccccc3P(C)(C)=O)n2)c(OC)cc1N1CCC(N2CCN(C)CC2)CC1` [Example 22, N-(5-((5-chloro-4-((2-(dimethylphosphoryl)phenyl)amino)pyrimidin-2-yl)amino)-4-methoxy-2-(4-(4-methylpiperazin-1-yl)piperidin-1-yl)phenyl)acrylamide], the half-maximal inhibitory concentration (IC50) was less than 50 nM in assay [1] (human EGFR native sequence), less than 50 nM at EGFR L858R (EGFR L858R), less than 50 nM on EGFR L858R/T790M (setting [6]) and not below 250 nM in assay [4] (BAF3 PARENTAL cells (control)). For the same compound, the GI50 in assay [2] and in assay [3] was 50 to 100 nM in each case.
For `CC#CC(=O)Nc1cc(Nc2ncc(Cl)c(Nc3ccccc3P(C)(C)=O)n2)c(OC)cc1OCC1CCOCC1` [Example 102, N-(5-((5-chloro-4-((2-(dimethylphosphoryl)phenyl)amino)pyrimidin-2-yl)amino)-4-methoxy-2-((tetrahydro-2H-pyran-4-yl)methoxy)phenyl)but-2-ynamide], the concentration for half-maximal inhibition (IC50) in assay [1] (human EGFR native sequence) is not below 250 nM; on EGFR L858R (EGFR L858R) it was 101 to 250 nM; on EGFR L858R/T790M (setting [6]) it was not below 250 nM; in assay [4] (BAF3 PARENTAL cells (control)), not below 250 nM. For the same compound, the GI50 in assay [2] was less than 50 nM; in assay [3], 50 to 100 nM.
For `C=C(CN1CCCC1)C(=O)Nc1ccc(OC)c(Nc2ncc(Cl)c(Nc3ccccc3P(C)(C)=O)n2)c1` [Example 42, N-(3-((5-chloro-4-((2-(dimethylphosphoryl)phenyl)amino)pyrimidin-2-yl)amino)-4-methoxyphenyl)-2-(pyrrolidin-1-ylmethyl)acrylamide], the IC50 in assay [1] (human EGFR native sequence) was less than 50 nM; on EGFR L858R (EGFR L858R), less than 50 nM; at EGFR L858R/T790M (setting [6]) it was less than 50 nM; in assay [4] (BAF3 PARENTAL cells (control)) it was not below 250 nM. For the same compound, the GI50 in assay [2] and in assay [3] was less than 50 nM each time.
Take `CNC(=O)/C=C/C(=O)Nc1ccc(OC)c(Nc2ncc(Cl)c(Nc3ccccc3P(C)(C)=O)n2)c1` [Example 109, N1-(3-((5-chloro-4-((2-(dimethylphosphoryl)phenyl)amino)pyrimidin-2-yl)amino)-4-methoxyphenyl)-N4-methylfumaramide]: the concentration for half-maximal inhibition (IC50) in assay [1] (setting [5]) is not below 250 nM; on EGFR L858R (setting [5]), less than 50 nM; on EGFR L858R/T790M (setting [5]), less than 50 nM; in assay [4] (BAF3 parental cells) it was not below 250 nM. The GI50 in assay [2] was 50 to 100 nM; in assay [3], 101 to 250 nM.
On to `COc1ccc(NC(=O)CCl)cc1Nc1ncc(Cl)c(Nc2ccccc2P(C)(C)=O)n1` [Example 137, 2-chloro-N-(3-((5-chloro-4-((2-(dimethylphosphoryl)phenyl)amino)pyrimidin-2-yl)amino)-4-methoxyphenyl)acetamide], for which the half-maximal inhibitory concentration (IC50) in assay [1] (setting [5]) is less than 50 nM; at EGFR L858R (setting [5]), less than 50 nM; on EGFR L858R/T790M (setting [5]) it was less than 50 nM; in assay [4] (BAF3 parental cells), not below 250 nM. Further, the GI50 in assay [2] and in assay [3] was less than 50 nM throughout.
